Drawing on ChEMBL document CHEMBL3992516, “Synthesis and SAR evaluation of novel thioridazine derivatives active against drug-resistant tuberculosis” (Eur J Med Chem, 2017), this text covers MIC for 26 compounds.

Values after ≈ are worked out from the molar mass of the structure shown.

The assay has as its system Mycobacterium tuberculosis variant bovis. As to the kind of experiment: Antimycobacterial activity against Mycobacterium bovis BCG Pasteur ATCC 35734 by microplate alamar blue assay. In kind it is functional.
In the case of `CN1CCCCC1CCN1c2ccccc2Sc2ccc(Cl)cc21` (stereo unspecified), it took 8 µg/mL (≈ 22.3 µM) to inhibit growth (MIC). Under `CN1CCCCC1CCn1c2ccccc2c2ccccc21` (stereo unspecified) stands above 64 µg/mL; under `CN1CCCCC1CCn1cnc2ccccc21` (stereo unspecified), above 64 µg/mL. For the compound `c1ccc2c(c1)ccn2CCC1CCCCN1` (stereo unspecified), inhibition of growth (MIC) required 64 µg/mL (≈ 280 µM). Next, `CSc1ccc2c(c1)N(CCCN1CCN(C)CC1)c1ccccc1S2`: 8 µg/mL (≈ 20.7 µM); `Clc1ccc2c(c1)N(CCCN1CCN(c3ccccc3)CC1)c1ccccc1S2`: above 64 µg/mL; `Clc1ccc2c(c1)N(CCCN1CCSCC1)c1ccccc1S2`: above 64 µg/mL. As for `c1ccc2c(c1)c1ccccc1n2CCC1CCCCN1` (stereo unspecified), the MIC was above 64 µg/mL. Consider `CN1CCCCC1CCN1c2ccccc2Sc2ccccc21` (stereo unspecified), for which inhibition of growth (MIC) required 64 µg/mL (≈ 197 µM). Under `c1ccc(N2CCN(CCCN3c4ccccc4Sc4ccccc43)CC2)cc1` stands above 64 µg/mL; under `CCCN1CCCCC1CCN1c2ccccc2Sc2ccc(SC)cc21` (stereo unspecified), 64 µg/mL (≈ 161 µM); under `CSc1ccc2c(c1)N(CCC1CCCCN1C(C)C)c1ccccc1S2` (stereo unspecified), above 64 µg/mL. The compound `c1ccc2c(c1)Sc1ccccc1N2CCC1CCCCN1` (stereo unspecified) showed an MIC above 64 µg/mL. The compound `c1ccc2c(c1)ncn2CCC1CCCCN1` (stereo unspecified) showed a minimum inhibitory concentration (MIC) above 64 µg/mL. Next, `CSc1ccc2c(c1)N(CCCN1CCN(c3ccccc3)CC1)c1ccccc1S2`: above 64 µg/mL; `CSc1ccc2c(c1)N(CCCN1CCN(C34CC5CC(CC(C5)C3)C4)CC1)c1ccccc1S2`: 64 µg/mL (≈ 127 µM); `CSc1ccc2c(c1)N(CCC1CCCCN1)c1ccccc1S2` (stereo unspecified): 8 µg/mL (≈ 22.4 µM).

`CSc1ccc2c(c1)N(C(=O)CN1CCN(C)CC1)c1ccccc1S2` displayed an MIC above 64 µg/mL.

In turn, `Clc1ccc2c(c1)N(CCC1CCCCN1)c1ccccc1S2` (stereo unspecified) showed an MIC of 5.3 µg/mL (≈ 15.4 µM). With `CSc1ccc2c(c1)N(CCCN1CCN(C3C4CC5CC(C4)CC3C5)CC1)c1ccccc1S2` (stereo unspecified), the MIC was above 64 µg/mL.

`CN1CCN(CCCn2ccc3ccccc32)CC1` showed an MIC above 64 µg/mL. Take `CSc1ccc2c(c1)N(CCCN1CCSCC1)c1ccccc1S2`: the MIC was above 64 µg/mL.

`CSc1ccc2c(c1)N(CCC1CCCCN1Cc1ccccc1)c1ccccc1S2` (stereo unspecified) had an MIC of 8 µg/mL (≈ 17.9 µM). Turning to `NNC(=O)c1ccncc1` [ISONIAZID], the MIC was 0.063 µg/mL (≈ 0.459 µM). In turn, `CN1CCN(CCCN2c3ccccc3Sc3ccccc32)CC1` [PERAZINE] came in with an MIC of 64 µg/mL (≈ 189 µM). `CSc1ccc2c(c1)N(CCC1CCCCN1C)c1ccccc1S2` (stereo unspecified) [THIORIDAZINE] registered an MIC of 16 µg/mL (≈ 43.2 µM).

As a reminder, the MIC is the smallest concentration in the dilution series that meets the test's criterion for growth inhibition.
